# Target: T1, CYP81A24 (Echinochloa phyllopogon, UniProt R4WC97)
# T1 construct: expressed in E. coli C41(DE3) from pET28 with co-expressed Arabidopsis ATR2 reductase (pCDF, with HemA) and pGro7 chaperonin
# T1 sequence (R4WC97 1-515): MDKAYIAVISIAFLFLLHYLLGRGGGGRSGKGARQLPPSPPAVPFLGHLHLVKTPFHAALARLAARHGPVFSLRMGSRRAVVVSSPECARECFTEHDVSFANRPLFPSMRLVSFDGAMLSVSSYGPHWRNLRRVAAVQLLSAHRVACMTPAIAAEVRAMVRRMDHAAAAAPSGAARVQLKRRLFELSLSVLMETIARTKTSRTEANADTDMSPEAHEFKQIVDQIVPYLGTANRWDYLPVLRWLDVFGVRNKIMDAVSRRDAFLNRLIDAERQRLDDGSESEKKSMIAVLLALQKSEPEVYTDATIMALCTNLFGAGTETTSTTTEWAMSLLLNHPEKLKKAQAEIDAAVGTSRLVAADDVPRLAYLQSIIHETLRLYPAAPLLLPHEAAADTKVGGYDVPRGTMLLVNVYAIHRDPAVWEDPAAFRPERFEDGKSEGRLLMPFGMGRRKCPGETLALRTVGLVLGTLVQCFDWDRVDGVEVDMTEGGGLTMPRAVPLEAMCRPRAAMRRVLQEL
# Test: E. coli whole-cell metabolism, LC-MS/MS MRM m/z […] to […]
# Type: cell-based
# Conditions: 0.2 mM quinclorac, 24 h, 30 °C; co-expressed ATR2 reductase; putative hydroxylated product, no authentic standard
compound,measurement,value
O=C(O)c1c(Cl)ccc2cc(Cl)cnc12 [quinclorac],"E. coli whole-cell metabolism, LC-MS/MS MRM m/z 258 to 177","identified in the culture solution of E. coli with CYP81A12, CYP81A21, and CYP81A24"
